# Measurements from patent publication US10039752B2 (Cipla Limited, priority 2016, dated 2018).
# pIC50: −log10 of the molar value. Where two headings read alike, the source gives them in different places.
# What was measured:
# [1] = system: human pancreatic cancer xenografts (PDX model PAXF 546); assay: In vivo animal efficacy study; parameters: species or system Nude mice; conditions: for Mean Tumor volume: methazolamide 60 mg/kg p.o., gemcitabine 50 mg/kg i.v. Q7D, in mm³; for tumor growth inhibition: methazolamide 60 mg/kg orally, gemcitabine 50 mg/kg i.v.
# [2] = system: PAXF 1986L, PAXF 546L, PAXF Capan-2, and PAXF MIA-Pa-Ca-2; assay: cells; conditions: Homo sapiens, 192 h, read-out: relative IC50 values, range over four cell lines
# Experimental: The clonogenic assay was carried out in a 96 well plate format using ultra low attachment plates. For each test cells were prepared as described above, and assay plates were prepared as follows: each test well contained a layer of semi-solid medium with tumor cells (50 μl), and a second layer of medium supernatant with or without test compounds (100 μl). […] The soft-agar layer was immediately covered with 90 μl of the same culture medium without agar. After 24 hour the test compounds were added after serial dilution in IMDM and transfer in cell culture medium, and left on the cells for the duration of the experiment (continuous exposure, 100 μL total drug overlay). Every plate included six untreated control wells and drug-treated groups in a layout as shown above. […] Within this period, ex vivo tumor growth led to the formation of colonies with a diameter of >50 μm. At the time of maximum colony formation, counts were performed with an automatic image analysis system (CellInsight NXT, Thermo Scientific). 48 hours prior to evaluation, vital colonies were stained with a sterile aqueous solution of 2-(4-iodophenyl)-3-(4-nitrophenyl)-5-phenyltetrazolium chloride (1 mg/ml, 100 μl/well).
# PAXF MIA-Pa-Ca-2 [3] = assay: cells; conditions: Homo sapiens, MIA PaCa-2, 96 h
# Text: (§1) PAXF 546L, PAXF 1986L, PAXF 1998L, PAXF 2005L and PAXF 2059L were established at Oncotest from the corresponding human patient derived xenograft. CAPAN-2, HUP-T3 and PA-TU-8902 were purchased from DSMZ (Braunschweig, Germany). PANC-1 was purchased from CLS Cell Line Services GmbH (Eppelheim, Germany). BxPC-3, HPAC and MIA-Pa-Ca-2 were purchased from ATCC (Rockville, Md., USA). Authenticity of cell lines was confirmed at the DSMZ by STR (short tandem repeat) analysis, a PCR based DNA-fingerprinting methodology. Cell lines were routinely passaged once or twice weekly and maintained in culture for up to 20 passages. All cells were grown at 37° C. in a humidified atmosphere with 5% CO2 in RPMI 1640 medium (25 mM HEPES, with L-glutamine, #FG1385, Biochrom, Berlin, Germany) supplemented with 10% (v/v) fetal calf serum (Sigma, Taufkirchen, Germany) and 0.1 mg/mL gentamicin (Life Technologies, Karlsruhe, Germany).
# (§2) The CellTiter-Blue® Cell Viability Assay (#G8081, Promega) was used according to manufacturer's instructions. Briefly, cells were harvested from exponential phase cultures, counted and plated in 96-well flat-bottom microtiter plates at a cell density of 6,000-20,000 cells/well depending on the cell line's growth rate. After a 24 hours recovery period to allow the cells to resume exponential growth, test compounds were added. […] After 96 hours treatment of cells, 20 μL/well CellTiter-Blue® reagent was added. Following an incubation period of up to four hours, fluorescence (FU) was measured by using the Enspire Multimode Plate Reader (excitation λ=531 nm, emission λ=615 nm). For calculations, the mean values of duplicate/quadruplicate (untreated control) data were used. Sigmoidal concentration-response curves were fitted to the data points (T/C values) obtained for each cell line using 4 parameter non-linear curve fit (Oncotest Warehouse Software).
# [4] = system: twelve selected human pancreatic cancer cell lines; assay: cells; conditions: for pIC50: Homo sapiens, Pancreatic cancer cell
# Text: as §1, §2
# PAXF MIA-Pa-Ca-2 [5] = assay: cells; conditions: Homo sapiens
# Experimental: (§3) Cell lines were routinely passaged one or twice weekly.
# Tumor xenografts (patient-derived, as well as cell line-derived xenografts) were passaged as subcutaneous xenografts in NMRI nu/nu mice. […] The percentage of viable cells was determined in a Neubauer-hemocytometer using trypan blue exclusion. Aliquots of the cells were frozen down, and stored in liquid nitrogen. On each day of an experiment, a frozen aliquot of tumor cells was thawed and used for preparation of assay plates.
# [6] = system: 11 human tumor xenograft-derived cell suspensions or tumor cell lines of pancreatic cancer; assay: In vitro 3D clonogenic assay, whole panel (geometric mean); type: cell-based
# Text: as §3
# PAXF 2059L = assay: In vitro 2-D assay (CellTiter-Blue cell viability, 96 h); type: cell-based; conditions: Homo sapiens, PAXF 2059, 96 hours treatment
# Text: as §1, §2
# PAXF HUP-T3 = assay: as above; type: cell-based; conditions: Homo sapiens, PAXF HUP-T3, 96 hours treatment
# Text: as §1, §2
# PAXF 1986L = assay: as above; type: cell-based; conditions: Homo sapiens, PAXF 1986, 96 hours treatment
# Text: as §1, §2
# PAXF BxPC-3 [7] = assay: as above; type: cell-based; conditions: Homo sapiens, PAXF BxPC-3, 96 hours treatment
# Text: as §1, §2
# PAXF CAPAN-2 [8] = assay: as above; type: cell-based; conditions: Homo sapiens, PAXF CAPAN-2, 96 hours treatment
# Text: as §1, §2
# PAXF HPAC [9] = assay: as above; type: cell-based; conditions: Homo sapiens, 96 hours treatment
# Text: as §1, §2
# PAXF 1998L = assay: as above; type: cell-based; conditions: Homo sapiens, PAXF 1998, 96 hours treatment
# Text: as §1, §2
# PAXF PA-TU-8902 [10] = assay: as above; type: cell-based; conditions: Homo sapiens, PaTu 8902, PAXF PA-TU-8902, 96 hours treatment
# Text: as §1, §2
# PAXF PANC-1 [11] = assay: as above; type: cell-based; conditions: Homo sapiens, PAXF PANC-1, 96 hours treatment
# Text: as §1, §2
# PAXF 2005L = assay: as above; type: cell-based; conditions: Homo sapiens, PAXF 2005, 96 hours treatment
# Text: as §1, §2
# PAXF 546L = assay: as above; type: cell-based; conditions: Homo sapiens, PAXF 546, 96 hours treatment
# Text: as §1, §2
# PAXF 546 = assay: In vitro 3D clonogenic assay; type: cell-based; conditions: Homo sapiens
# Text: as §3
# PAXF 1982 = assay: In vitro 3D clonogenic assay; type: cell-based; conditions: Homo sapiens
# Text: as §3
# PAXF BxPC-3 [12] = assay: In vitro 3D clonogenic assay; type: cell-based; conditions: Homo sapiens
# Text: as §3
# PAXF 2005 = assay: In vitro 3D clonogenic assay; type: cell-based; conditions: Homo sapiens
# Text: as §3
# PAXF CAPAN-2 [13] = assay: In vitro 3D clonogenic assay; type: cell-based; conditions: Homo sapiens
# Text: as §3
# PAXF 2059 = assay: In vitro 3D clonogenic assay; type: cell-based; conditions: Homo sapiens
# Text: as §3
# PAXF HPAC [14] = assay: In vitro 3D clonogenic assay; type: cell-based; conditions: Homo sapiens
# Text: as §3
# PAXF PA-TU-8902 [15] = assay: In vitro 3D clonogenic assay; type: cell-based; conditions: Homo sapiens
# Text: as §3
# PAXF 1986 = assay: In vitro 3D clonogenic assay; type: cell-based; conditions: Homo sapiens
# Text: as §3
# PAXF PANC-1 [16] = assay: In vitro 3D clonogenic assay; type: cell-based; conditions: Homo sapiens
# Text: as §3
smiles,measurement,setting,value
"Nc1ccn([C@@H]2O[C@H](CO)[C@@H](O)C2(F)F)c(=O)n1 [Gemcitabine, gemcitabine]",Mean Tumor volume,[1]; day 1,119.84
same,Mean Tumor volume,[1]; day 3,172.26
same,Mean Tumor volume,[1]; day 9,214.28
same,Mean Tumor volume,[1]; day 12,262.19
same,Mean Tumor volume,[1]; day 15,312.84
same,Mean Tumor volume,[1]; day 18,334.59
same,Mean Tumor volume,[1]; day 21,382.57
same,Mean Tumor volume,[1]; day 24,454.56
same,Mean Tumor volume,[1]; day 28,592.69
same,Mean Tumor volume,[1]; day 31,648.88
same,Mean Tumor volume,[1]; day 34,696.91
same,tumor growth inhibition,[1],61%
same,pIC50,[2],7.21 to 7.89
"CC(=O)N=c1sc(S(N)(=O)=O)nn1C [Methazolamide, N-[5-(aminosulfonyl)-3-methyl-1,3,4-thiadiazol-2(3H)-ylidene]acetamide]",pIC50,PAXF MIA-Pa-Ca-2 [3]; read-out: Absolute IC50,2.82
same,pIC50,PAXF MIA-Pa-Ca-2 [3]; read-out: Relative IC50,2.75
same,"activity, shape of concentration-effect curves","[4]; 2-D, all cell lines tested",concentration-dependent activity with sigmoidal concentration-effect curves
same,pIC50,"[4]; read-out: Absolute IC50, Geometric Mean",2.73
same,pIC50,"[4]; read-out: Individual IC50 values, range over cell lines",2.27 to 3.14
same,pIC50,"[4]; read-out: Relative IC50, Geometric Mean",2.73
same,Mean Tumor volume,[1]; day 1,94.47
same,Mean Tumor volume,[1]; day 3,121.60
same,Mean Tumor volume,[1]; day 9,151.64
same,Mean Tumor volume,[1]; day 12,189.82
same,Mean Tumor volume,[1]; day 15,253.64
same,Mean Tumor volume,[1]; day 18,341.73
same,Mean Tumor volume,[1]; day 21,470.79
same,Mean Tumor volume,[1]; day 24,583.90
same,Mean Tumor volume,[1]; day 28,718.08
same,Mean Tumor volume,[1]; day 31,836.82
same,Mean Tumor volume,[1]; day 34,916.02
same,tumor growth inhibition,[1],up to 50%
same,pIC50,"PAXF MIA-Pa-Ca-2 [5]; MIA PaCa-2, read-out: Absolute IC50",3.27
same,pIC50,"PAXF MIA-Pa-Ca-2 [5]; MIA PaCa-2, read-out: Relative IC50",3.31
same,pIC50,[2],3.09 to 3.53
same,pIC50,"[6]; read-out: Absolute IC50, Geometric mean",3.11
same,pIC50,"[6]; read-out: Relative IC50, Geometric mean",3.11
same,pIC50,PAXF 2059L; read-out: Absolute IC50,2.69
same,pIC50,PAXF 2059L; read-out: Relative IC50,2.75
same,pIC50,PAXF HUP-T3; read-out: Absolute IC50,3.14
same,pIC50,PAXF HUP-T3; read-out: Relative IC50,3.15
same,pIC50,PAXF 1986L; read-out: Absolute IC50,2.73
same,pIC50,PAXF 1986L; read-out: Relative IC50,2.78
same,pIC50,PAXF BxPC-3 [7]; read-out: Absolute IC50,2.71
same,pIC50,PAXF BxPC-3 [7]; read-out: Relative IC50,2.63
same,pIC50,PAXF CAPAN-2 [8]; read-out: Absolute IC50,2.69
same,pIC50,PAXF CAPAN-2 [8]; read-out: Relative IC50,2.69
same,pIC50,PAXF HPAC [9]; read-out: Absolute IC50,2.27
same,pIC50,PAXF HPAC [9]; read-out: Relative IC50,2.26
same,pIC50,PAXF 1998L; read-out: Absolute IC50,2.60
same,pIC50,PAXF 1998L; read-out: Relative IC50,2.65
same,pIC50,PAXF PA-TU-8902 [10]; read-out: Absolute IC50,2.99
same,pIC50,PAXF PA-TU-8902 [10]; read-out: Relative IC50,2.95
same,pIC50,PAXF PANC-1 [11]; read-out: Absolute IC50,2.81
same,pIC50,PAXF PANC-1 [11]; read-out: Relative IC50,2.80
same,pIC50,PAXF 2005L; read-out: Absolute IC50,2.74
same,pIC50,PAXF 2005L; read-out: Relative IC50,2.80
same,pIC50,PAXF 546L; read-out: Absolute IC50,2.63
same,pIC50,PAXF 546L; read-out: Relative IC50,2.52
same,pIC50,"PAXF 546; PAXF546, read-out: Absolute IC50",3.46
same,pIC50,"PAXF 546; PAXF546, read-out: Relative IC50",3.47
same,pIC50,PAXF 1982; read-out: Absolute IC50,3.15
same,pIC50,PAXF 1982; read-out: Relative IC50,3.14
same,pIC50,PAXF BxPC-3 [12]; read-out: Absolute IC50,3.08
same,pIC50,PAXF BxPC-3 [12]; read-out: Relative IC50,3.09
same,pIC50,PAXF 2005; read-out: Absolute IC50,3.28
same,pIC50,PAXF 2005; read-out: Relative IC50,3.22
same,pIC50,PAXF CAPAN-2 [13]; read-out: Absolute IC50,3.25
same,pIC50,PAXF CAPAN-2 [13]; read-out: Relative IC50,3.21
same,pIC50,PAXF 2059; read-out: Absolute IC50,3.09
same,pIC50,PAXF 2059; read-out: Relative IC50,3.12
same,pIC50,PAXF HPAC [14]; read-out: Absolute IC50,2.86
same,pIC50,PAXF HPAC [14]; read-out: Relative IC50,2.96
same,pIC50,"PAXF PA-TU-8902 [15]; PaTu 8902, read-out: Absolute IC50",2.68
same,pIC50,"PAXF PA-TU-8902 [15]; PaTu 8902, read-out: Relative IC50",2.59
same,pIC50,PAXF 1986; read-out: Absolute IC50,3.33
same,pIC50,PAXF 1986; read-out: Relative IC50,3.31
same,pIC50,PAXF PANC-1 [16]; read-out: Absolute IC50,2.76
same,pIC50,PAXF PANC-1 [16]; read-out: Relative IC50,2.74
